Reference: PubChem BioAssay (NCI)
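96-well plates; 48 h exposure; 5 concentrations. Endpoints by linear interpolation between flanking doses. Not reached: highest tested concentration assigned. TGI is the concentration that stops growth completely.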

How the values were obtained:
Test in all cases: inhibition of tumour cell growth, NCI panel, 48 h
ACHN renal = test system: ACHN renal
DMS 114 small cell lung = test system: DMS 114 small cell lung
HCT-116 colon = test system: HCT-116 colon
KM20L2 colon = test system: KM20L2 colon
NCI-H226 lung = test system: NCI-H226 lung
NCI-H460 lung = test system: NCI-H460 lung
OVCAR-4 ovarian = test system: OVCAR-4 ovarian
SF-268 CNS = test system: SF-268 CNS
SR leukemia = test system: SR leukemia
U251 CNS = test system: U251 CNS
UACC-62 melanoma = test system: UACC-62 melanoma
K-562 leukemia = test system: K-562 leukemia
MDA-N = test system: MDA-N

Cc1ccc(NC(=O)/C(=N/NC(=O)C[N+](C)(C)C)c2nc3ccccc3[nH]c2=O)cc1
TGI (ACHN renal): > 100 µM | TGI (DMS 114 small cell lung): > 100 µM | TGI (HCT-116 colon): > 100 µM | TGI (KM20L2 colon): > 100 µM | TGI (NCI-H226 lung): > 100 µM | TGI (NCI-H460 lung): > 100 µM | TGI (OVCAR-4 ovarian): > 100 µM | TGI (SF-268 CNS): > 100 µM | TGI (SR leukemia): > 100 µM | TGI (U251 CNS): 85.3 µM | TGI (UACC-62 melanoma): > 100 µM

COC12C=CC(CC1)C(C)(C)C2OS(C)(=O)=O (centres undefined)
TGI (ACHN renal): > 100 µM | TGI (HCT-116 colon): > 100 µM | TGI (K-562 leukemia): > 100 µM | TGI (MDA-N): > 100 µM | TGI (NCI-H226 lung): > 100 µM | TGI (NCI-H460 lung): > 100 µM | TGI (OVCAR-4 ovarian): > 100 µM | TGI (SF-268 CNS): > 100 µM | TGI (SR leukemia): > 100 µM | TGI (U251 CNS): > 100 µM | TGI (UACC-62 melanoma): > 100 µM

S=C(N/N=C(\C(=N/NC(=S)N1CCCCC1)c1ccccn1)c1ccccn1)N1CCCCC1
TGI (ACHN renal): 91.6 µM | TGI (HCT-116 colon): > 100 µM | TGI (K-562 leukemia): > 100 µM | TGI (MDA-N): > 100 µM | TGI (NCI-H226 lung): > 100 µM | TGI (NCI-H460 lung): > 100 µM | TGI (SF-268 CNS): > 100 µM | TGI (SR leukemia): > 100 µM | TGI (U251 CNS): > 100 µM | TGI (UACC-62 melanoma): > 100 µM

CC(C)=CCC[C@@H](C)C1=CC(=O)C(C)=C(O)C1=O
TGI (ACHN renal): 10.8 µM | TGI (HCT-116 colon): 11.8 µM | TGI (K-562 leukemia): 5.79 µM | TGI (MDA-N): 16.6 µM | TGI (NCI-H226 lung): 22.8 µM | TGI (NCI-H460 lung): 43.1 µM | TGI (OVCAR-4 ovarian): 14.2 µM | TGI (SF-268 CNS): 24.3 µM | TGI (SR leukemia): 5.98 µM | TGI (U251 CNS): 38.7 µM | TGI (UACC-62 melanoma): 24.1 µM

CN1C=COC1N=C1CCCCC1 (centres undefined)
TGI (ACHN renal): > 100 µM | TGI (HCT-116 colon): > 100 µM | TGI (K-562 leukemia): > 100 µM | TGI (MDA-N): > 100 µM | TGI (NCI-H226 lung): > 100 µM | TGI (NCI-H460 lung): > 100 µM | TGI (OVCAR-4 ovarian): > 100 µM | TGI (SF-268 CNS): > 100 µM | TGI (SR leukemia): > 100 µM | TGI (U251 CNS): > 100 µM | TGI (UACC-62 melanoma): > 100 µM

COc1ccc(C2C(C#N)=C(S)N(C3OC(CO)C(O)C(O)C3O)C(C)=C2C(C)=O)cc1 (centres undefined)
TGI (ACHN renal): > 100 µM | TGI (HCT-116 colon): > 100 µM | TGI (K-562 leukemia): > 100 µM | TGI (MDA-N): > 100 µM | TGI (NCI-H226 lung): > 100 µM | TGI (NCI-H460 lung): > 100 µM | TGI (OVCAR-4 ovarian): > 100 µM | TGI (SF-268 CNS): > 100 µM | TGI (SR leukemia): > 100 µM | TGI (U251 CNS): > 100 µM | TGI (UACC-62 melanoma): > 100 µM

Cn1cnc(SC2=C3C(=O)C=C4S[C@H]5C[C@]42c2c(c(O)c4c6c2=[N+]3CCC=6C=N4)N5)c1CC(N)C(=O)O (some centres undefined)
TGI (ACHN renal): 29.5 µM | TGI (DMS 114 small cell lung): 6.11 µM | TGI (HCT-116 colon): 13.3 µM | TGI (K-562 leukemia): 41.3 µM | TGI (KM20L2 colon): 16.6 µM | TGI (NCI-H226 lung): 36.5 µM | TGI (NCI-H460 lung): > 100 µM | TGI (OVCAR-4 ovarian): 31.1 µM | TGI (SF-268 CNS): 25.1 µM | TGI (SR leukemia): 48.8 µM | TGI (U251 CNS): 31.3 µM | TGI (UACC-62 melanoma): 29.2 µM

O=C(Nc1ccc(Sc2ccc(N=Nc3c(O)c(S(=O)(=O)O)cc4cc(S(=O)(=O)O)ccc34)cc2)cc1)c1ccc(N=Nc2c(O)c(S(=O)(=O)O)cc3cc(S(=O)(=O)O)ccc23)cc1
TGI (ACHN renal): > 100 µM | TGI (DMS 114 small cell lung): 42.9 µM | TGI (HCT-116 colon): > 100 µM | TGI (K-562 leukemia): > 100 µM | TGI (KM20L2 colon): > 100 µM | TGI (NCI-H226 lung): > 100 µM | TGI (NCI-H460 lung): 27.7 µM | TGI (OVCAR-4 ovarian): > 100 µM | TGI (SF-268 CNS): > 100 µM | TGI (SR leukemia): 54 µM | TGI (U251 CNS): > 100 µM | TGI (UACC-62 melanoma): 62 µM

CCOC(=O)C(NC(=O)CC)(Nc1ccc(S(=O)(=O)Nc2ccc(OC)nn2)cc1)C(F)(F)F (centres undefined)
TGI (ACHN renal): > 100 µM | TGI (HCT-116 colon): > 100 µM | TGI (K-562 leukemia): > 100 µM | TGI (MDA-N): > 100 µM | TGI (NCI-H226 lung): > 100 µM | TGI (NCI-H460 lung): > 100 µM | TGI (OVCAR-4 ovarian): > 100 µM | TGI (SF-268 CNS): > 100 µM | TGI (SR leukemia): > 100 µM | TGI (U251 CNS): > 100 µM | TGI (UACC-62 melanoma): > 100 µM

O=C(N[C@H]1CCC[C@H]1C(=O)Nc1ccc(C(F)(F)F)cc1)OCc1ccccc1
TGI (ACHN renal): > 100 µM | TGI (HCT-116 colon): > 100 µM | TGI (K-562 leukemia): > 100 µM | TGI (MDA-N): > 100 µM | TGI (NCI-H226 lung): > 100 µM | TGI (NCI-H460 lung): > 100 µM | TGI (OVCAR-4 ovarian): > 100 µM | TGI (SF-268 CNS): > 100 µM | TGI (SR leukemia): > 100 µM | TGI (U251 CNS): > 100 µM | TGI (UACC-62 melanoma): > 100 µM

CC1CCOc2ccc(cc2)C=Nc2ccc(cc2)-c2ccc(cc2)N=Cc2ccc(cc2)OCC1 (centres undefined)
TGI (ACHN renal): > 100 µM | TGI (HCT-116 colon): > 100 µM | TGI (K-562 leukemia): > 100 µM | TGI (MDA-N): > 100 µM | TGI (NCI-H226 lung): > 100 µM | TGI (NCI-H460 lung): > 100 µM | TGI (OVCAR-4 ovarian): > 100 µM | TGI (SF-268 CNS): > 100 µM | TGI (SR leukemia): > 100 µM | TGI (U251 CNS): > 100 µM

CC1C(C#N)(C#N)C(C#N)=C(N)C1(C)[N+](=O)[O-] (centres undefined)
TGI (ACHN renal): > 100 µM | TGI (HCT-116 colon): > 100 µM | TGI (K-562 leukemia): > 100 µM | TGI (MDA-N): > 100 µM | TGI (NCI-H226 lung): > 100 µM | TGI (NCI-H460 lung): > 100 µM | TGI (OVCAR-4 ovarian): > 100 µM | TGI (SF-268 CNS): > 100 µM | TGI (SR leukemia): > 100 µM | TGI (U251 CNS): > 100 µM | TGI (UACC-62 melanoma): > 100 µM

COc1cc(C2c3cc(OC)c(OC)c(O)c3C(=O)C3CCC(=O)N32)cc(OC)c1OC (centres undefined)
TGI (ACHN renal): > 100 µM | TGI (HCT-116 colon): > 100 µM | TGI (K-562 leukemia): > 100 µM | TGI (MDA-N): 34.5 µM | TGI (NCI-H226 lung): > 100 µM | TGI (NCI-H460 lung): > 100 µM | TGI (OVCAR-4 ovarian): > 100 µM | TGI (SF-268 CNS): > 100 µM | TGI (SR leukemia): > 100 µM | TGI (U251 CNS): > 100 µM | TGI (UACC-62 melanoma): > 100 µM

C[C@@]12C[C@@H](c3ccccc3O1)N1Cc3ccccc3CSC1=N2
TGI (ACHN renal): > 100 µM | TGI (HCT-116 colon): > 100 µM | TGI (K-562 leukemia): > 100 µM | TGI (MDA-N): > 100 µM | TGI (NCI-H226 lung): > 100 µM | TGI (NCI-H460 lung): > 100 µM | TGI (OVCAR-4 ovarian): > 100 µM | TGI (SF-268 CNS): > 100 µM | TGI (SR leukemia): > 100 µM | TGI (U251 CNS): > 100 µM | TGI (UACC-62 melanoma): > 100 µM

CC1=NN(C(=O)Cc2ccccc2)C(=O)/C1=C\c1ccccc1O
TGI (ACHN renal): > 100 µM | TGI (DMS 114 small cell lung): > 100 µM | TGI (HCT-116 colon): > 100 µM | TGI (K-562 leukemia): > 100 µM | TGI (KM20L2 colon): > 100 µM | TGI (NCI-H226 lung): > 100 µM | TGI (NCI-H460 lung): > 100 µM | TGI (OVCAR-4 ovarian): > 100 µM | TGI (SF-268 CNS): > 100 µM | TGI (U251 CNS): > 100 µM | TGI (UACC-62 melanoma): > 100 µM

OC(C1CCCCCCCCCC1)C(O)C1CCCCCCCCCC1 (centres undefined)
TGI (ACHN renal): > 100 µM | TGI (HCT-116 colon): > 100 µM | TGI (K-562 leukemia): > 100 µM | TGI (MDA-N): > 100 µM | TGI (NCI-H226 lung): > 100 µM | TGI (NCI-H460 lung): > 100 µM | TGI (OVCAR-4 ovarian): > 100 µM | TGI (SF-268 CNS): > 100 µM | TGI (SR leukemia): > 100 µM | TGI (U251 CNS): > 100 µM | TGI (UACC-62 melanoma): > 100 µM

COC1=CC(=O)c2nc3ccccc3c3ccnc1c23
TGI (ACHN renal): > 65.4 µM | TGI (HCT-116 colon): > 22.8 µM | TGI (K-562 leukemia): > 100 µM | TGI (MDA-N): 0.448 µM | TGI (NCI-H226 lung): 33 µM | TGI (NCI-H460 lung): 8.33 µM | TGI (OVCAR-4 ovarian): 18.8 µM | TGI (SF-268 CNS): > 44.2 µM | TGI (SR leukemia): 10.8 µM | TGI (U251 CNS): > 67.3 µM | TGI (UACC-62 melanoma): 2.95 µM

O=c1[nH]nc(Cc2ccc(Cl)cc2)n1/N=C/c1c[nH]c2ccccc12
TGI (ACHN renal): > 100 µM | TGI (HCT-116 colon): > 100 µM | TGI (K-562 leukemia): > 100 µM | TGI (MDA-N): > 100 µM | TGI (NCI-H226 lung): > 100 µM | TGI (NCI-H460 lung): > 100 µM | TGI (OVCAR-4 ovarian): > 100 µM | TGI (SF-268 CNS): > 100 µM | TGI (SR leukemia): > 100 µM | TGI (U251 CNS): > 100 µM | TGI (UACC-62 melanoma): > 100 µM

Cc1ccc(N=C2SC(=NN(C)C)SC2=Nc2ccc(C)cc2)cc1
TGI (ACHN renal): > 100 µM | TGI (HCT-116 colon): > 100 µM | TGI (K-562 leukemia): > 100 µM | TGI (MDA-N): > 100 µM | TGI (NCI-H226 lung): > 100 µM | TGI (NCI-H460 lung): > 100 µM | TGI (OVCAR-4 ovarian): > 100 µM | TGI (SF-268 CNS): > 100 µM | TGI (SR leukemia): > 100 µM | TGI (U251 CNS): > 100 µM | TGI (UACC-62 melanoma): > 100 µM
